Data on 13 compounds can be found in patent publication US20140303164A1, “THERAPEUTIC COMPOUNDS” (Gilead Sciences, Inc., priority 2013, published 2014).

In general, inhibition refers to the change of the read-out against control, counted positive when it falls. Usually CC50 stands for the concentration at which the toxic effect on the cells reaches its halfway point. Low readings indicate greater toxicity to the cells, high ones lower toxicity to the cells.

Series [1] concerns HIV-IIIb. Description: Test A: Antiviral Assay in MT4 Cells. The settings on record: Human immunodeficiency virus 1, IIIB, MT4, 120 h; for inhibition at 0.2 µM: read-out: % inhibition at 0.2 μM; for inhibition at 2 µM: read-out: % inhibition at 2 μM. It counts as cell-based, HIV-1. The procedure: Test A: Antiviral Assay in MT4 Cells
MT-4 cells were next mixed with HIV-IIIb at an m.o.i of 0.003 for 1 hour, after which time 35 μL of virus/cell mixture (2000 cells) was immediately added to each well containing 40 μL of diluted compound. The plates were then incubated at 37° C. for 5 days. […] Cell lysis was carried out by incubating at room temperature for 10 min and then chemiluminescence was read.

A short description of series [2]: Test B: Cytotoxicity Assay. The settings on record: human, uninfected MT-4 cells, same protocol as Test A. The format is cell-based. In short, it runs like this: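 Uninfected MT-4 cells (2000 per well) incubated with diluted compound at 37° C. for 5 days, following the antiviral protocol without HIV-IIIb.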

`Cn1nc(N)c2c(Cl)ccc(-c3ccc(C#CC(C)(C)O)nc3[C@H](Cc3cc(F)cc(F)c3)NC(=O)Cn3nc(C(F)F)c4c3C(F)(F)[C@@H]3C[C@H]43)c21` [Compound 57, N—((S)-1-(3-(3-amino-4-chloro-1-methyl-1H-indazol-7-yl)-6-(3-hydroxy-3-methylbut-1-yn-1-yl)pyridin-2-yl)-2-(3,5-difluorophenyl)ethyl)-2-((3bS,4aR)-3-(difluoromethyl)-5,5-difluoro-3b,4,4a,5-tetrahydro-1H-cyclopropa[3,4]cyclopenta[1,2-c]pyrazol-1-yl)acetamide]: in series [1], the inhibition at 0.2 µM is 93% and the inhibition at 2 µM was found to be 93%. The compound also showed a cytotoxic concentration (CC50) at 5 days in series [2] of 7.63 µM.

Turning to `Cn1nc(NS(C)(=O)=O)c2c(Cl)ccc(-c3ccc(C#CC(C)(C)O)nc3[C@H](Cc3cc(F)cc(F)c3)NC(=O)Cn3nc(C(F)(F)F)c4c3COCC4)c21` [Compound 190, (S)—N-(1-(3-(4 chloro-1-methyl-3-(methylsulfonamido)-1H-indazol-7-yl)-6-(3-hydroxy-3-methylbut-1-yn-1-yl)pyridin-2-yl)-2-(3,5-difluorophenyl)ethyl)-2-(3-(trifluoromethyl)-4,5-dihydropyrano[3,4-c]pyrazol-1(7H)-yl)acetamide], in series [1], the inhibition at 0.2 µM worked out at 98% and the inhibition at 2 µM is 98%. This compound also gave a CC50 at 5 days in series [2] of 13.9 µM.

On to `Cn1nc(NS(C)(=O)=O)c2c(Cl)ccc(-c3ccc(C#CC(C)(C)O)nc3[C@H](Cc3cc(F)cc(F)c3)NC(=O)Cn3nc(C(F)(F)F)cc3C3CC3)c21` [Compound 191, (S)—N-(1-(3-(4 chloro-1-methyl-3-(methylsulfonamido)-1H-indazol-7-yl)-6-(3-hydroxy-3-methylbut-1-yn-1-yl)pyridin-2-yl)-2-(3,5-difluorophenyl)ethyl)-2-(5-cyclopropyl-3-(trifluoromethyl)-1H-pyrazol-1-yl)acetamide], for which, in series [1], the inhibition at 0.2 µM was 91% and the inhibition at 2 µM was 91%. It took 10.1 µM to reach half-maximal cytotoxicity in series [2] (CC50 at 5 days).

As to `CCC(=O)Nc1nn(C)c2c(-c3ccc(C#CC(C)(C)O)nc3[C@H](Cc3cc(F)cc(F)c3)NC(=O)Cn3nc(C(F)F)c4c3C(F)(F)[C@@H]3C[C@H]43)ccc(Cl)c12` [Compound 95, N-(4-chloro-7-(2-((S)-1-(2-((3b-S,4aR)-3-(difluoromethyl)-5,5-difluoro-3b,4,4a,5-tetrahydro-1H-cyclopropa[3,4]cyclopenta[1,2-c]pyrazol-1-yl)acetamido)-2-(3,5-difluorophenyl)ethyl)-6-(3-hydroxy-3-methylbut-1-yn-1-yl)pyridin-3-yl)-1-methyl-1H-indazol-3-yl)propionamide], in series [1], the inhibition at 0.2 µM amounted to 93% and the inhibition at 2 µM is 93%. The CC50 at 5 days in series [2] turned out to be 6.51 µM.

With `CN(C)c1cc(-c2ccc(Cl)c3c(NS(C)(=O)=O)nn(C)c23)c([C@H](Cc2cc(F)cc(F)c2)NC(=O)Cn2nc(C(F)F)c3c2C(F)(F)[C@@H]2C[C@H]32)nc1C#CC(C)(C)O` [Compound 183F, N—((S)-1-(3-(4-chloro-1-methyl-3-(methylsulfonamido)-1H-indazol-7-yl)-5-(dimethylamino)-6-(3-hydroxy-3-methylbut-1-yn-1-yl)pyridin-2-yl)-2-(3,5-difluorophenyl)ethyl)-2-((3b-S,4aR)-3-(difluoromethyl)-5,5-difluoro-3b,4,4a,5-tetrahydro-1H-cyclopropa[3,4]cyclopenta[1,2-c]pyrazol-1-yl)acetamide], in series [1], the inhibition at 0.2 µM amounted to 84% and the inhibition at 2 µM was 84%. The midpoint of cytotoxicity in series [2], the CC50 at 5 days, lay at 12.4 µM.

Take `Cn1nc(NS(C)(=O)=O)c2c(Cl)ccc(-c3ccc(C#CC(C)(C)O)nc3[C@H](Cc3cc(F)cc(F)c3)NC(=O)Cn3nc(C4(O)CC4)c4c3CCCC4)c21` [Compound 156E, (S)—N-(1-(3-(4 chloro-1-methyl-3-(methylsulfonamido)-1H-indazol-7-yl)-6-(3-hydroxy-3-methylbut-1-yn-1-yl)pyridin-2-yl)-2-(3,5-difluorophenyl)ethyl)-2-(3-(1-hydroxycyclopropyl)-4,5,6,7-tetrahydro-1H-indazol-1-yl)acetamide]: in series [1], the inhibition at 0.2 µM was 78% and the inhibition at 2 µM is 78%. The compound further showed a CC50 at 5 days in series [2] of 25.6 µM.

As to `Cn1nc(NS(C)(=O)=O)c2c(C(F)F)ccc(-c3ccc(C#CC(C)(C)O)nc3[C@H](Cc3cc(F)cc(F)c3)NC(=O)Cn3nc(C(F)F)c4c3C(F)(F)[C@@H]3C[C@H]43)c21` [Compound 155I, N—((S)-1-(3-(4-(difluoromethyl)-1-methyl-3-(methylsulfonamido)-1H-indazol-7-yl)-6-(3-hydroxy-3-methylbut-1-yn-1-yl)pyridin-2-yl)-2-(3,5-difluorophenyl)ethyl)-2-((3b-S,4aR)-3-(difluoromethyl)-5,5-difluoro-3b,4,4a,5-tetrahydro-1H-cyclopropa[3,4]cyclopenta[1,2-c]pyrazol-1-yl)acetamide], in series [1], the inhibition at 0.2 µM is 99% and the inhibition at 2 µM came out at 99%. Moreover, the CC50 at 5 days in series [2] was determined as 26.8 µM.

On to `CNc1cc(-c2ccc(Cl)c3c(NS(C)(=O)=O)nn(C)c23)c([C@H](Cc2cc(F)cc(F)c2)NC(=O)Cn2nc(C(F)F)c3c2C(F)(F)[C@@H]2C[C@H]32)nc1C#CC(C)(C)O` [Compound 182L, N—((S)-1-(3-(4-chloro-1-methyl-3-(methylsulfonamido)-1H-indazol-7-yl)-6-(3-hydroxy-3-methylbut-1-yn-1-yl)-5-(methylamino)pyridin-2-yl)-2-(3,5-difluorophenyl)ethyl)-2-((3b-S,4aR)-3-(difluoromethyl)-5,5-difluoro-3b,4,4a,5-tetrahydro-1H-cyclopropa[3,4]cyclopenta[1,2-c]pyrazol-1-yl)acetamide], for which, in series [1], the inhibition at 0.2 µM amounted to 100% and the inhibition at 2 µM worked out at 100%. In series [2], this compound displayed a CC50 at 5 days of 9.83 µM.

For `Cn1nc(NS(C)(=O)=O)c2c(Cl)ccc(-c3ccc(C#CC(C)(C)C)nc3[C@H](Cc3cc(F)cc(F)c3)NC(=O)Cn3nc(C(F)F)c4c3C(F)(F)[C@@H]3C[C@H]43)c21` [Compound 131E, N—((S)-1-(3-(4-chloro-1-methyl-3-(methylsulfonamido)-1H-indazol-7-yl)-6-(3,3-dimethylbut-1-yn-1-yl)pyridin-2-yl)-2-(3,5-difluorophenyl)ethyl)-2-((3b-S,4aR)-3-(difluoromethyl)-5,5-difluoro-3b,4,4a,5-tetrahydro-1H-cyclopropa[3,4]cyclopenta[1,2-c]pyrazol-1-yl)acetamide], in series [1], the inhibition at 0.2 µM is 95% and the inhibition at 2 µM came out at 96%. Further, the midpoint of cytotoxicity in series [2], the CC50 at 5 days, lay at 22.5 µM.

In the case of `Cn1nc(NS(C)(=O)=O)c2cccc(-c3ccc(C#CC(C)(C)O)nc3[C@H](Cc3cc(F)cc(F)c3)NC(=O)Cn3nc(C(F)F)c4c3C(F)(F)[C@@H]3C[C@H]43)c21` [Compound 20, (S)—N-(1-(3-(1-methyl-3-(methylsulfonamido)-1H-indazol-7-yl)-6-(3-hydroxy-3-methylbut-1-ynyl)pyridin-2-yl)-2-(3,5-difluorophenyl)ethyl)-2-((3b-S,4aR)-5,5-difluoro-3-(difluoromethyl)-3b,4,4a,5-tetrahydro-1H-cyclopropa[3,4]cyclopenta[1,2-c]pyrazol-1-yl)acetamide], in series [1], the inhibition at 0.2 µM was found to be 96% and the inhibition at 2 µM is 80%. In addition, the CC50 at 5 days in series [2] was determined as 11.2 µM.

Consider `Cn1nc(NC(=O)C2CC2)c2c(Cl)ccc(-c3ccc(C#CC(C)(C)O)nc3[C@H](Cc3cc(F)cc(F)c3)NC(=O)Cn3nc(C(F)F)c4c3C(F)(F)[C@@H]3C[C@H]43)c21` [Compound 86, N-(4-chloro-7-(2-((S)-1-(2-((3b-S,4aR)-3-(difluoromethyl)-5,5-difluoro-3b,4,4a,5-tetrahydro-1H-cyclopropa[3,4]cyclopenta[1,2-c]pyrazol-1-yl)acetamido)-2-(3,5-difluorophenyl)ethyl)-6-(3-hydroxy-3-methylbut-1-yn-1-yl)pyridin-3-yl)-1-methyl-1H-indazol-3-yl)cyclopropanecarboxamide], for which, in series [1], the inhibition at 0.2 µM is 99% and the inhibition at 2 µM worked out at 99%. For the same compound, it took 6.47 µM to reach half-maximal cytotoxicity in series [2] (CC50 at 5 days).

For `Cn1nc(N)c2c(C#N)ccc(-c3ccc(C#CC(C)(C)O)nc3[C@H](Cc3cc(F)cc(F)c3)NC(=O)Cn3nc(C(F)F)c4c3C(F)(F)[C@@H]3C[C@H]43)c21` [Compound 77E, N—((S)-1-(3-(3-amino-4-cyano-1-methyl-1H-indazol-7-yl)-6-(3-hydroxy-3-methylbut-1-yn-1-yl)pyridin-2-yl)-2-(3,5-difluorophenyl)ethyl)-2-((3b-S,4aR)-3-(difluoromethyl)-5,5-difluoro-3b,4,4a,5-tetrahydro-1H-cyclopropa[3,4]cyclopenta[1,2-c]pyrazol-1-yl)acetamide], in series [1], the inhibition at 0.2 µM stood at 96% and the inhibition at 2 µM was 97%. For the same compound, in series [2], half-maximal cytotoxicity (CC50 at 5 days) was put at 11.8 µM.

As to `CC(C)(O)C#Cc1ccc(-c2ccc3n[nH]c(=O)n3c2)c([C@H](Cc2cc(F)cc(F)c2)NC(=O)Cn2nc(C(F)(F)F)c3c2C(F)(F)[C@@H]2C[C@H]32)n1` [Compound 26, 2-((3bS,4aR)-5,5-difluoro-3-(trifluoromethyl)-3b,4,4a,5-tetrahydro-1H-cyclopropa[3,4]cyclopenta[1,2-c]pyrazol-1-yl)-N—((S)-2-(3,5-difluorophenyl)-1-(6-(3-hydroxy-3-methylbut-1-yn-1-yl)-3-(3-oxo-2,3-dihydro-[1,2,4]triazolo[4,3-a]pyridin-6-yl)pyridin-2-yl)ethyl)acetamide], in series [1], the inhibition at 0.2 µM was 84% and the inhibition at 2 µM turned out to be 100%. In series [2], this compound returned a CC50 at 5 days of 10 µM.
